# Columns and labels:
# [1] = system: MCL1 protein in MDAMB468 cells; experiment: Western blot of BCL2 family proteins, MDAMB468; type: cell-based, human; conditions: 50 nM or 100 nM, 24 hours
# Procedure: (§1) Cytotoxic cancer cell lines HCC70 and TOV21G, and cytostatic cancer cell lines T47D and COV318 were seeded in wells of a six-well dish at a density of 1×10^6 cells/well and allowed to adhere overnight. Cells were then treated with 50 nM of Compound 1 for 16 or 24 hours, or with DMSO (0 hours) representing a negative control. Cells were harvested and placed on ice, and resuspended in RIPA lysis buffer supplemented with protease and phosphatase inhibitors. Clarified lysates prepared with 4×LSD running buffer and boiled at 95° C. for 5 minutes. Equivalent amounts of sample (10 μg total protein) were run on a 4-12% Bis-Tris gel and transferred to a PDVF membrane for Western blotting using standard Western blotting protocols. Membranes were blocked with Licor TBS blocking buffer then probed with antibodies for BCL-XL, BCL-2, MCL1, BID, and GAPDH visualized using and Odyssey imager (FIGS. 23A and 23D).
# (§2) In a similar experiment, TNBC breast cancer cell lines HCC70, MDAMB468, MDAMB453 and CAL-120 were grown as described above and treated with DMSO, 50 nM Compound 1 or 100 nM Compound 1 for 24 hours. Protein samples were prepared as described above for Western blotting using antibodies specific for the indicated proteins in FIG. 29A. […]
# [2] = system: MCL1 protein in MDAMB453 cells; experiment: Western blot of BCL2 family proteins, MDAMB453; type: cell-based, human; conditions: 50 nM or 100 nM, 24 hours
# Procedure: as §1, §2
# [3] = system: MCL1 protein in MV411 cells; experiment: Western blot, AML cell line MV411; type: cell-based; conditions: 50 nM
# Procedure: as §1
# (§3) We next explored the expression of MCL1, BCL-XL and BCL2 in four different AML cell lines. MV411, OCI-AML3 and KG1 cells were separately grown and prepared as described in Example 2 for Western blotting, using antibodies specific for BCL2 (FIG. 24A), BCL-XL, MCL-1 and tubulin as an internal control (FIG. 24B).
# [4] = system: MCL1 protein in KG1 cells; experiment: Western blot, AML cell line KG1; type: cell-based; conditions: 50 nM
# Procedure: as §1, §3
# [5] = system: gene expression in HCC70 cells; experiment: Gene expression profiling via RNA-seq (DESeq2, linear model), HCC70; type: cell-based; conditions: four hours, JQ1 125 nM, Compound 1 25 nM
# Procedure: In addition, we compared the ability of JQ1 alone, Compound 1 alone, and a combination of JQ1 and Compound 1 to modify expression of various genes in two breast cancer cell lines. Two triple-negative breast cancer cell lines (HCC70 and MDA-MB468) were tested. The cell lines were treated with JQ1, Compound 1, the JQ1/Compound 1 combination, or DMSO for four hours, after which gene expression profiling via RNA-seq was performed. JQ1 was administered to the cells at a 125 nM final concentration in both single agent and combination experiments. Compound 1 was administered to the cells at a 25 nM final concentration in both single agent and combination experiments. Each experiment was performed in triplicate. One replicate of MDA-MB-468 treated with single-agent JQ1 was excluded from further analysis due to quality.
# We employed DESeq2 (Love et al., Genome Biology, 15(12):550, 2014) to identify changes in gene expression due to the JQ1, Compound 1, and JQ1-Compound 1 combination treatment compared to the control DMSO condition based on the RNA-seq data. Genes resulting in a p-value below 0.01 and an absolute logFoldChange above 0.5 were considered to be differentially expressed. […] The same is true for 1459 of 2414 genes in MDA-MB468.
# To identify the genes whose expression is impacted synergistically by the drug combination, we modeled the effect of each drug treatment on expression using a linear model. The expression of each gene after the combination treatment can be thought of as the combined impact of Compound 1, JQ1, and any synergistic interaction between the drug treatments on baseline gene expression. A linear model used to describe this relationship could therefore be represented as:
# Gene Expression after combination treatment=Baseline Expression+Compound 1 effect+JQ1 effect+Combination effect (Synergistic Impact)
# By fitting the expression data for each gene using this model, we were able to evaluate the effect of each treatment, and identify cases where a synergistic interaction between Compound 1 and JQ1 impacts final gene expression. After fitting the linear model to each gene, the weight and p-value of each term can be evaluated. The combination term's weight signifies the mean change resulting from a synergetic impact on expression, with a negative weight indicating synergistic downregulation. Its associated p-value represents the probability that the combination term is not relevant to final gene expression. Using this approach, we identified 1806 genes in HCC70 and 2205 genes in MDA-MB468 whose expression change in the combination treatment was synergistic and whose associated p-value was less than a threshold cutoff of 0.01. The expression of these synergistic genes could not be explained by an additive effect of Compound 1 and JQ1 alone.
# [6] = system: Rad51, CHEK1 and CHEK2 RNA in THP1 cells; experiment: Microarray RNA levels of DNA damage repair genes, THP1; type: cell-based; conditions: THP1 AML cells; 100 nM, 6 hrs
# Procedure: THP1 is an AML cell line. THP1 cells (1×10^6/well) were plated in 6-well plates and treated with vehicle (DMSO), 100 nM Compound 1, 25 nM NVP2 (a CDK9 inhibitor), 250 nM JQ1 (a BRD4 inhibitor) or 200 nM Flavopiridol (a pan-CDK inhibitor) for 6 hrs, after which cells were harvested and total RNA (1,000 ng) isolated. RNA levels of the DNA damage repair genes Rad51, CHEK1 and CHEK2 were analyzed by microarray. Experiments were done in triplicates. We performed RMA normalization of the data using the “affy” package from Bioconductor. The command used is shown below and includes background correction, normalization and summarization:
# Next, we performed loess normalization using only spike-ins to enable comparison of expression values across multiple samples.
# [7] = system: AML xenografts; conditions: previously shown; cited from earlier work
smiles,measurement,setting,value
"CN(C)C/C=C/C(=O)Nc1ccc(C(=O)N[C@@]2(C)CCC[C@@H](Nc3ncc(Cl)c(-c4c[nH]c5ccccc45)n3)C2)nc1 [Compound 1, N-((1S,3R)-3-(5-chloro-4-(1H-indol-3-yl)pyrimidin-2-ylamino)-1-methylcyclohexyl)-5-((E)-4-(dimethylamino)but-2-enamido)picolinamide]",MCL1 protein level (Western blot),[1],downregulated
same,MCL1 protein level (Western blot),[2],downregulated
same,MCL1 protein level (Western blot),[3],significant reduction in MCL1
same,MCL1 protein level (Western blot),[4],significant reduction in MCL1
same,Average Expression (TPM) GATA3,[5]; DMSO 32.685,22.404 TPM
same,Average Expression (TPM) FOXC1,[5]; DMSO 40.481,25.768 TPM
same,Average Expression (TPM) TGIF1,[5]; DMSO 62.523,68.293 TPM
same,"mRNA expression from genes involved in DNA repair (Rad51, CHEK1, CHEK2)",[6],Downregulation
same,Anti-tumor activity,[7],anti-tumor activity

# Reference: patent US20200113902A1, “COMPOSITIONS AND METHODS FOR TREATING CANCERS WITH COVALENT INHIBITORS OF CYCLIN-DEPENDENT KINASE 7 (CDK7)” (Syros Pharmaceuticals, Inc., priority 2017, published 2020)
